Source: US9220261B1, “Volatile blends and the effects thereof on the navel orangeworm moth” (The United States of America, as represented by the …, priority 2010, dated 2015)

What was measured:
NOW [1] = experiment: Field trapping screening studies of individual CONO; assay type: in vivo, Amyelois transitella; conditions: September 2 to Oct. 5, 2009, almond and pistachio orchards
Text: FAB.x and GAVA.x blends were mixed with another component, conophthorin (CONO). CONO increased the efficacy of the blends in the FAB4 and GAVA series. This was somewhat unexpected as CONO alone is not attractive to NOW. […] Subsequent field trapping screening studies of individual CONO between September 2 and Oct. […] Virgin female NOW-baited traps at the same time indicated pressures of NOW in the orchards.

NOW [2] = experiment: Electroantennographic studies of CONO; set-up: species or system Amyelois transitella; conditions: lower than the positive standard
female NOW antennae = experiment: Electroantennogram (EAG) bioassay, female NOW antennae; set-up: species or system Amyelois transitella; conditions: Example 1; 50 μg on disc (almond meal 3.1 mg); raw response minus NegCtrl
Protocol: The EAG experiments were performed by similar protocols described previously (Beck et al., 2009, supra). The antennae of sexed NOW were excised, positioned on a fork electrode using electrode gel, and connected to an IDAC-4 acquisition controller and electrophysiological amplifier using PC-based software (Syntech, Kirchzarten, Germany). The antennae were humidified with a stream of purified air bubbled through distilled water at a flow rate of 200 ml/min. The individual compounds for EAG analysis (50 μg; 10 μl of a 5 μg/μl solution in pentane) were loaded onto oven-dried 0.64 cm assay discs, allowed to air-dry for five min, inserted into 14.6 cm Pasteur pipets and the ends temporarily capped with parafilm. […] For almond meal analyses, 3.1 mg was placed in a Pasteur pipet containing very lightly packed glass wool. Negative control ([…]) discs were prepared using a similar method, but with 10 μl of pentane prior to solvent evaporation. Positive control (PosCtrl) discs were prepared using the major sex pheromone component (Z,Z)-11,13-hexadecadienal (50 μg, Suterra LLC, Bend, Oreg.). The pipets loaded with the individual compounds were attached via tubing to a stimulus controller unit (Syntech). The antennae were exposed to each compound by a two-second puff of air and the resulting response recorded. […]

| Structure (SMILES) | attraction of NOW in field trapping (NOW [1]) | electroantennographic activity (NOW [2]) | EAG antennal response from female NOW, normalized (female NOW antennae) |
| --- | --- | --- | --- |
| C[C@@H]1CCC[C@@]2(CCCO2)O1 [CONO, 7-methyl-1,6-dioxaspiro[4.5]decane] | did not attract any NOW | mildly active | – |
| CC(=O)c1ccccc1 [acetophenone] | – | – | 397 μV |
| Oc1ccccc1 [phenol] | – | – | 78 μV |
